# Assay results taken from patent publication US20070042967A1, “Proteaseome inhibitors for the treatment of herpesviridae infected individuals” (priority 2002, published 2007).
# Where a SMILES comes first, the peptide text is derived from it. The star is where a group is joined. Cbz = O=C(OCc1ccccc1)*; OtBu = CC(C)(C)O*
# How the values were obtained:
# [1] = test system: ICAM-1 (CD54); experiment: Surface expression of ICAM-1 (CD54) on HELF by flow cytometric analysis; format: cell-based, human; details: GCV for comparison; AD169 m.o.i.=1
# Experimental: Next, we wondered whether MG132 is able to reduce the immune modulatory activity of HCMV. Therefore we measured the levels of extracellular IL-6, IL-8, and RANTES in the supernatants of mock-infected and AD-169-infected HELF (m.o.i. =1) following culture in the presence or absence of increasing amounts of MG132. In parallel, surface expression of ICAM-1 (CD54) was measured by flow cytometric analysis. As expected infection of HELF with AD 169 increased secretion of IL-6, EL-8 and RANTES (data not shown) as well as surface expression of ICAM-1 over time (FIGS. 14A and B). […]
# (§1) Cell culture fluids were tested for RANTES using the ELISA KIT from R&D System, Germany, following the manufacturers instructions. […] Surface CD54 amounts were analysed using a FACScalibur analyser and cellquest software (Becton Dickinson, Germany). Data were calculated as A mean fluorescence intensities of CD54 and isotype control antibodies (=specific mean fluorescence intensity, MFI).
# MG132-dependent suppression of HCMV-induced ICAM-1 surface expression Uninfected and AD169-infected HELF (m.o.i.=1) were grown in the absence or presence of MG132 or GCV and harvested 24 h (A) or 48 h (B) p.i. for surface ICAM-1 measurement by flowcytometric analysis. The specific MFI of uninfected and untreated control HELF was calculated as 100%. […]
# [2] = test system: HCMV IE1/2 enhancer/promoter; experiment: TNFα stimulation / basal activity of the HCMV IE1/2 enhancer/promoter, CAT reporter (pRR55) in HL-60 cells; format: cell-based, HCMV strain Ad169; details: for influence on TNFα stimulation of the IE1/2 enhancer/promoter (in words): HL-60, HCMV AD169 promoter
# Experimental: As a model for undifferentiated monocyte/granulocyte progenitor cells HL-60, cells (ATCC No. CCL 240) expressing high levels of CD34+ but low levels of typical differentiation antigens like CD11a-c and CD14 on their surface were used. Furthermore, HL-60 cells have retained the ability, to differentiate into granulocytes and monocytes depending on the stimulus. HL-60 cells were grown in RPMI 1640 medium supplemented with 10% fetal calf serum (both certified endotoxin-free, Biochrome, Germany) at 37° C. in a 5% humidified atmosphere. […] The cells were grown up to 1×10^6 cells per ml. HL-60 cells were transiently transfected with the plasmid pRR55 containing the native HCMV strain Ad169 IE1/2 enhancer/promoter region between nucleotides […] and +52 relative to the transcription start site upstream of the chloramphenicol acetyl transferase (CAT) reporter gene (Fickenscher et al., 1989). Plasmid DNA was prepared using the endofree Maxi Kit (QUIAGEN, Germany or Machery & Nagel, Germany) and stored in aliquots at −20° C. Transient transfection was performed using the DEAE transfection protocol (Stein et al., 1993). Per transfection reaction 5×10^5 cells were washed once with FCS-free medium and then resuspendend in 250 μl transfection buffer containing 1×TBS (24 mM Tris-HCl, pH 7.4, 137 mM NaCl, 5 mM KCl, 0.7 mM CaCl2, 0.5 mM MgCl2, 0.6 mM Na2HPO4), 2.5 μg plasmid DNA (1 μg/μl ) and 5 mg/ml DEAE dextran (Pharmacia-Amersham, Germany). To avoid differences in transfection efficiency, cells for parallel probes were transfected in one reaction and splitted after transfection. Transfection occurred for 1 h at 37° C. After that the cells were washed once with FCS-free RPMI 1640 medium and resuspended in medium containing 10% FCS at a concentration of 5×10^5 cells/5 ml. MG-132 (Calbiochemie, Germany) was dissolved in ethanol (5 μg/μl) and stored in aliqotes at −20 ° C. MG-132 was added into the medium at time zero after transfection and 1 h before TNFα (5 ng/ml, human recombinant TNFα; PAN, Germany, stored in aliquots containing 10 μg/μl at −80° C.). The cells were harvested 48 h after transfection, washed once with PBS and resuspended in 70 μl CAT buffer 1 (0.25 M Tris/HCl, pH 7.8, 0.5 mM EDTA). After 10 min of incubation on ice, cell extracts were prepared by repeated frozen/thawing of the cells (routinely 5 times), 10 min incubation at 65 ° C. to inactivate isoenzymes. Cell debris was removed by centrifugation at 12000 rpm for 10 min in an Eppendorf centrifuge. Cell extracts were measured for their protein concentrations using the method of Bradford (Bradford, 1976) and Bradford reagent (Sigma, Germany). Equal quantities of protein were used in the CAT-assay as described by Gorman et al., 1982. 20 μl lysates were incubated with [^14C]chloramphenicol (Hartman Analytic, Germany) and acetyl-CoA (Sigma, Germany) at 37° C. Reaction was stopped by extraction with ethylacetat (Merck, Germany). The acetylated products were quantified after separation by thin-layer chromatography using a thin layer scintillator. […] In the presence of 0.1 μg/ml MG-132 reduced TNFα stimulation by 50% (FIG. 1).
# The reporter gene plasmid pRR55 contains the whole HCMV IE1/2 enhancer/promoter region between nucleotides +52 and −637 with respect to the IE1 transcriptions start site, upstream of the chloramphenicol acetyltransferase (CAT) gene [Fickenscher H, Stamminger T, Riiger R & Fleckenstein B. The role of a repetetive palindrormic sequence element in the human cytomegalovirus major immediate early enhancer. J Gen Virol 1989; 70:107-123.]. The plasmid was kindly provided by T. Stamminger (Eriangen, Germany). For transient transfection of HL-60 cells we used the DEAE dextran method as described earlier [Stein J, Volk H D, Liebenthal C, Kruger D H & Prosch S. Tumor necrosis factor alpha stimulates the activity of the human cytomegalovirus major immediate early enhancer/promoter in immature monocytic cells. J Gen Virol 1993; 74:2333-2338]. […]
# [3] = test system: HL-60 cells; experiment: Cytotoxic effects on HL-60 cells; format: cell-based; details: at 0.5 and 0.1 μg/ml
# Experimental: (§2) Granulocyte/monocyte progenitor like HL-60 cells (ACC CCL 240) were grown in RPMI 1640 medium supplemented with 10% foetal calf serum (FCS, both from Biochrom, Germany and certified to be endotoxin free). Permissive human embryonal lung fibroblasts (HELF) were grown as monolayer in Dulbecco's modified Eagle's medium (BioWhittaker Europa, Belgium) containing 2.0% FCS. Virus stocks of HCMV strain AD169. of laboratory-derived ganciclovir (GCV)-resistant viruses XbaF 4-3-1 and 1117′ 3-1-2 (both are kindly provided from K. K. Biron, Burroughs Wellcome Colo.), HSV 1, strain K, and HSV 2, strain DG (both are patients isolates from the strain collection of this institute) were prepared from the supernatant of infected cell cultures and stored in liquid nitrogen. For standard plaque reduction assays as well as for experiments with immunoblot analysis HELF were seeded into 25 cm^2 cell culture flasks. For preparation of cytosolic and nuclear extracts cells were seeded into 100 cm^2 culture flasks. Generally, confluent monolayers were infected at an multiplicity of infection (m.o.i.) of 0.0002 for standard plaque reduction assay and a m.o.i. of 1 for immunoblot analysis, for preparation of cytosolic and nuclear extracts as well as for measurement of cytokine, chemokine and adhesion molecules in cell culture supernatant. […]
# [4] = test system: HCMV AD169; experiment: HCMV AD169 replication in human embryonal lung fibroblasts (CPE / IE staining, day 5 p.i.); format: cell-based, human cytomegalovirus
# Description: Human embryonal lung fibroblasts (HELF), one of the target cells of HCMV in vivo, are fully permissive for HCMV replication in vitro. For infection experiments the laboratory adapted strain AD169 was propagated on HELFs. Virus stocks prepared from the overlay of infected cells showing 100% cytopathic effect (CPE) by ultra centrifugation were stored in liquid N2. Confluent HELF monolayer in 50 cm^2 flasks were infected with AD169 at a multiplicity of infection (M.O.I.) of 0.01. Adsorption of the virus was allowed for 1 hour at 37° C. After that the monolayer was overlayed with MEM containing 4.5% FCS. Medium was free of or substituted with the proteasome inhibitor at the indicated concentration. Virus cultures were cultivated for 5 days without changing the medium. On day five p.i. virus replication, was quantified by the number of CPE visible in inverse light microscope. For quantification cells were stained with an HCMV-specific antibody recognising the IE proteins IE1 and IE2 (clone E13, Harlan Sera-tab, Loughborough, GB, 1:5000), goat anti-mouse HRP-conjugated IgG (1:4000; Boehringer Mannheim, Indianapolis, Ind., USA) as secondary antibody and the AEC staining kit (Sigma, Germany) which gives a reed nuclear staining of infected cells.
# Granulocyte/monocyte progenitor like HL-60 cells (ACC CCL 240) were grown in RPMI 1640 medium supplemented with 10% foetal calf serum (FCS, both from Biochrom, Germany and certified to be endotoxin free). Permissive human embryonal lung fibroblasts (HELF) were grown as monolayer in Dulbecco's modified Eagle's medium (BioWhittaker Europa, Belgium) containing 2.0% FCS. Virus stocks of HCMV strain AD169. of laboratory-derived ganciclovir (GCV)-resistant viruses XbaF 4-3-1 and 1117′ 3-1-2 (both are kindly provided from K. K. Biron, Burroughs Wellcome Colo.), HSV 1, strain K, and HSV 2, strain DG (both are patients isolates from the strain collection of this institute) were prepared from the supernatant of infected cell cultures and stored in liquid nitrogen. […]
# [5] = test system: HELF; experiment: Toxicity for HELFs; format: cell-based, human; details: 0.2 μg/ml
# Experimental: as §2
# [6] = test system: HSV1 strain K; experiment: HSV1 replication in HELF (CPE count); format: cell-based, Herpes Simplex Type 1; details: 0.2 to 0.01 μg/ml (0.42 to 0.021 μM)
# Experimental: (§3) Confluente HELF monolayers in 24 well tissue culture plates were infected with HSV1 strain K or HSV2 at a M.O.I. of 0.001. Virus adsorption was allowed for 1 h at 37° C. After removing the viral inoculate, cells were overlayed with MEM/E, 1% Methocel and incubated for two days at 37° C. in a 5% CO2 atmosphere. MG-132 at the indicated concentrations was added into the medium after adsorption. CPEs were quantified by light microscopy. MG132 had no effect on HSV1 (FIG. 6) and HSV2 (not shown) replication in HELF.
# [7] = test system: HSV2; experiment: HSV2 replication in HELF (CPE count); format: cell-based, Herpes Simplex Type 2; details: not shown
# Experimental: as §3
# [8] = test system: IL-6; experiment: Extracellular IL-6 in supernatants of AD169-infected HELF (ELISA); format: cell-based, human; details: increasing amounts; data not shown
# Experimental: (§4) Next, we wondered whether MG132 is able to reduce the immune modulatory activity of HCMV. Therefore we measured the levels of extracellular IL-6, IL-8, and RANTES in the supernatants of mock-infected and AD-169-infected HELF (m.o.i. =1) following culture in the presence or absence of increasing amounts of MG132. In parallel, surface expression of ICAM-1 (CD54) was measured by flow cytometric analysis. As expected infection of HELF with AD 169 increased secretion of IL-6, EL-8 and RANTES (data not shown) as well as surface expression of ICAM-1 over time (FIGS. 14A and B). While virus-induced secretion of IL-6, IL-8, and RANTES was not inhibited by the proteasome inhibitor, but, in some experiments even increased (data not shown), virus-induced surface expression of ICAM-1 was prevented (FIG. 14). […] For comparison, GCV had no influence on virus-induced ICAM-1 expression, but rather sustained its density on the cell surface (FIG. 14, last columns).
# (§5) For measurement of IL-6 and EL-8 cell culture supernatants were collected from mock-infected and AD169-infected HELF cultivated in the presence or absence of MG132 or GCV (m.o.i.=1) immediately after adsorption of the virus (day 0) as well as at day 1, 2, 3 and 5 p.i. and tested for IL-6 and EL-8 by Immulite™ semiautomatic. ELISA analysis as described by the manufacturer (DPC Biermann, Germany).
# [9] = test system: IL-8; experiment: Extracellular IL-8 in supernatants of AD169-infected HELF (ELISA); format: cell-based, human; details: increasing amounts; data not shown
# Experimental: as §4, §5
# [10] = test system: RANTES; experiment: Extracellular RANTES in supernatants of AD169-infected HELF (ELISA); format: cell-based, human; details: increasing amounts; data not shown
# Experimental: as §4, §1
molecule,measurement,setting,value
"Nc1nc(O)c2ncn(COC(CO)CO)c2n1 [GCV, Ganciclovir]",influence on virus-induced ICAM-1 expression,[1],no influence
N-carbobenzoxy-L-leucinyl-L-leucinyl-L-leucinal [MG-132],influence on TNFα stimulation of the IE1/2 enhancer/promoter (in words),[2],decreased TNFα stimulation of the IE1/2 enhancer/promoter in a concentration-dependent manner
Cbz-IE(OtBu)AL-aldehyde [PS-1],decrease of TNFα stimulation,"[2]; 0.5 to 0.1 μg/ml (0.81 to 0.16 μM), HL-60",about 60%
same,influence on TNFα stimulation of the IE1/2 enhancer/promoter (in words),[2],reduce TNFα stimulation in a concentration-dependent manner
"CC(C)C[C@H](NC(=O)OCc1ccccc1)C(=O)N[C@@H](CC(C)C)C(=O)N[C@H](C=O)Cc1ccccc1 [PS-2, Z-Leu-Leu-Phe-CHO] (Cbz-Leu-Leu-Phe-aldehyde)",influence on TNFα stimulation of the IE1/2 enhancer/promoter (in words),[2],reduce TNFα stimulation in a concentration-dependent manner
"CC(C)C[C@@H](C=O)NC(=O)[C@H](CC(C)C)NC(=O)[C@H](CC(C)C)NC(=O)OCc1ccccc1 [MG-132, N-carbobenzoxy-L-leucinyl-L-leucinyl-L-leucinal] (Cbz-Leu-Leu-Leu-aldehyde)",reduction of TNFα stimulation,"[2]; 0.1 μg/ml, HL-60, TNFα 5 ng/ml",50%
same,decrease of TNFa-mediated stimulation,"[2]; 0.8 μM, HL-60",about 80%
same,"concentrations that inhibit basic, TNFα-independent activity of the IE1/2 enhancer/promoter","[2]; HL-60, without TNFα",above 0.5 μg/ml
same,cytotoxic effects on HL-60 cells,[3],no cytotoxic effects
same,effect on virus replication,"[4]; 0.01 μg/ml (0.016 μM), AD169, HELF",no effect
same,number of IE-positive cells per foci compared with the untreated control,[4]; 0.1 μg/ml (0.21 μM),about 50%
same,number of virus-infected (IE-positive) cells per focus,"[4]; 0.2 μg/ml (0.42 μM), untreated 50",7 cells
same,toxicity for HELFs,[5],non-toxic
same,effect on HSV1 replication in HELF,[6],no effect
same,effect on HSV2 replication in HELF,[7],no effect
same,virus-induced secretion of IL-6,[8],not inhibited
same,virus-induced secretion of IL-8,[9],not inhibited
same,virus-induced secretion of RANTES,[10],not inhibited
